PMC5439695 (PLoS ONE, 2017)
Like-named read-outs stand apart in the source and are kept apart here.

How the values were obtained:
HepG2 cells [1] = assay: cells; conditions: Homo sapiens
HEK293 cells [2] = conditions: HEK293 glo
HepG2 cells [3] = assay: CellTox Green Cytotoxicity Assay (flor) in HepG2, HepG2[flor]; type: cell-based, human; conditions: HepG2 flor; for EC50: Homo sapiens, given as negative log-scale values;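 for hepg2 flor emax 0: percent activity versus DMSO-only wells with baseline rescaled to 0%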;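 for hepg2 flor emax 40: percent activity versus DMSO-only wells with baseline rescaled to 0%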
HEK293 cells [4] = assay: cells; conditions: Homo sapiens
[5] = test system: HEK293 and HepG2 cell lines; conditions: any activity in any time point/assay
HEK293 cells [6] = conditions: HEK293 flor
HepG2 cells [7] = conditions: HepG2 glo
HEK293 cells [8] = assay: cells; conditions: Homo sapiens; remark: listed apart in the source

`O=S1(=O)OC(c2ccc(O)cc2)(c2ccc(O)cc2)c2ccccc21` [Phenol red] was tested, and the EC50 (HepG2 cells [1]; HepG2, read-out: hepg2_glo_ec50_0) was 25.6 µM, the EC50 (HepG2 cells [1]; HepG2, read-out: hepg2_glo_ec50_8) was > 38.3 µM and the EC50 (HepG2 cells [1]; HepG2, read-out: hepg2_glo_ec50_16) was > 38.3 µM. For the same compound, the EC50 (HepG2 cells [1]; HepG2, read-out: hepg2_glo_ec50_24) was > 38.3 µM, the EC50 (HepG2 cells [1]; HepG2, read-out: hepg2_glo_ec50_32) was > 38.3 µM and the EC50 (HepG2 cells [1]; HepG2, read-out: hepg2_glo_ec50_40) was > 38.3 µM. For the same compound, the hek293_glo_auc (HEK293 cells [2]) was 1.203, the hek293_glo_time (HEK293 cells [2]) was 40 and the hek293_glo_bin (HEK293 cells [2]; kinetics bin) was “no_cv (no_cv: time > 40)”. It also gave a hek293_glo_emax_0 (HEK293 cells [2]; time point 0) of -33.7, a hek293_glo_pod_0 (HEK293 cells [2]; time point 0) of -4.507 and a hek293_glo_wauc_0 (HEK293 cells [2]; time point 0) of 0.8079. The hek293_glo_emax_8 (HEK293 cells [2]; time point 8) was -27.7816, the hek293_glo_pod_8 (HEK293 cells [2]; time point 8) was -4.452 and the hek293_glo_wauc_8 (HEK293 cells [2]; time point 8) was 0.7338. For the same compound, the hek293_glo_emax_16 (HEK293 cells [2]; time point 16) was -27.6507, the hek293_glo_pod_16 (HEK293 cells [2]; time point 16) was -4.4502 and the hek293_glo_wauc_16 (HEK293 cells [2]; time point 16) was 0.732. For the same compound, the hek293_glo_emax_24 (HEK293 cells [2]; time point 24) was 0, the hek293_glo_pod_24 (HEK293 cells [2]; time point 24) was -4.417 and the hek293_glo_wauc_24 (HEK293 cells [2]; time point 24) was 0. For the same compound, the hek293_glo_emax_32 (HEK293 cells [2]; time point 32) was 0, the hek293_glo_pod_32 (HEK293 cells [2]; time point 32) was -4.417 and the hek293_glo_wauc_32 (HEK293 cells [2]; time point 32) was 0. For the same compound, the hek293_glo_emax_40 (HEK293 cells [2]; time point 40) was 0, the hek293_glo_pod_40 (HEK293 cells [2]; time point 40) was -4.417 and the hek293_glo_wauc_40 (HEK293 cells [2]; time point 40) was 0. For the same compound, the hepg2_flor_auc (HepG2 cells [3]) was 0, the hepg2_flor_time (HepG2 cells [3]) was 48 and the hepg2_flor_bin (HepG2 cells [3]; kinetics bin) was “inactive”. The hepg2_flor_emax_0 (HepG2 cells [3]; time point 0) was 0, the hepg2_flor_pod_0 (HepG2 cells [3]; time point 0) was -4.417 and the hepg2_flor_wauc_0 (HepG2 cells [3]; time point 0) was 0. It also gave a hepg2_flor_emax_8 (HepG2 cells [3]; time point 8) of 0, a hepg2_flor_pod_8 (HepG2 cells [3]; time point 8) of -4.417 and a hepg2_flor_wauc_8 (HepG2 cells [3]; time point 8) of 0. It also gave a hepg2_flor_emax_16 (HepG2 cells [3]; time point 16) of 0, a hepg2_flor_pod_16 (HepG2 cells [3]; time point 16) of -4.417 and a hepg2_flor_wauc_16 (HepG2 cells [3]; time point 16) of 0. It also gave a hepg2_flor_emax_24 (HepG2 cells [3]; time point 24) of 0, a hepg2_flor_pod_24 (HepG2 cells [3]; time point 24) of -4.417 and a hepg2_flor_wauc_24 (HepG2 cells [3]; time point 24) of 0. For the same compound, the hepg2_flor_emax_32 (HepG2 cells [3]; time point 32) was 0, the hepg2_flor_pod_32 (HepG2 cells [3]; time point 32) was -4.417 and the hepg2_flor_wauc_32 (HepG2 cells [3]; time point 32) was 0. For the same compound, the hepg2_flor_emax_40 (HepG2 cells [3]; time point 40) was 0, the hepg2_flor_pod_40 (HepG2 cells [3]; time point 40) was -4.417 and the hepg2_flor_wauc_40 (HepG2 cells [3]; time point 40) was 0. The EC50 (HepG2 cells [3]; time point 0, read-out: hepg2_flor_ec50_0) was > 38.3 µM, the EC50 (HepG2 cells [3]; time point 8, read-out: hepg2_flor_ec50_8) was > 38.3 µM and the EC50 (HepG2 cells [3]; time point 16, read-out: hepg2_flor_ec50_16) was > 38.3 µM. The EC50 (HepG2 cells [3]; time point 24, read-out: hepg2_flor_ec50_24) was > 38.3 µM, the EC50 (HepG2 cells [3]; time point 32, read-out: hepg2_flor_ec50_32) was > 38.3 µM and the EC50 (HepG2 cells [3]; time point 40, read-out: hepg2_flor_ec50_40) was > 38.3 µM. For the same compound, the EC50 (HEK293 cells [4]; HEK293, read-out: hek293_glo_ec50_0) was 25.6 µM, the EC50 (HEK293 cells [4]; HEK293, read-out: hek293_glo_ec50_8) was 25.6 µM and the EC50 (HEK293 cells [4]; HEK293, read-out: hek293_glo_ec50_16) was 25.6 µM. The EC50 (HEK293 cells [4]; HEK293, read-out: hek293_glo_ec50_24) was > 38.3 µM, the EC50 (HEK293 cells [4]; HEK293, read-out: hek293_glo_ec50_32) was > 38.3 µM and the EC50 (HEK293 cells [4]; HEK293, read-out: hek293_glo_ec50_40) was > 38.3 µM. The information [5] was 1, the hek293_flor_auc (HEK293 cells [6]) was 0 and the hek293_flor_time (HEK293 cells [6]) was 48. The hek293_flor_bin (HEK293 cells [6]; kinetics bin) was “inactive”, the hek293_flor_emax_0 (HEK293 cells [6]; time point 0) was 0 and the hek293_flor_pod_0 (HEK293 cells [6]; time point 0) was -4.417. It also gave a hek293_flor_wauc_0 (HEK293 cells [6]; time point 0) of 0, a hek293_flor_emax_8 (HEK293 cells [6]; time point 8) of 0 and a hek293_flor_pod_8 (HEK293 cells [6]; time point 8) of -4.417. For the same compound, the hek293_flor_wauc_8 (HEK293 cells [6]; time point 8) was 0, the hek293_flor_emax_16 (HEK293 cells [6]; time point 16) was 0 and the hek293_flor_pod_16 (HEK293 cells [6]; time point 16) was -4.417. The hek293_flor_wauc_16 (HEK293 cells [6]; time point 16) was 0, the hek293_flor_emax_24 (HEK293 cells [6]; time point 24) was 0 and the hek293_flor_pod_24 (HEK293 cells [6]; time point 24) was -4.417. For the same compound, the hek293_flor_wauc_24 (HEK293 cells [6]; time point 24) was 0, the hek293_flor_emax_32 (HEK293 cells [6]; time point 32) was 0 and the hek293_flor_pod_32 (HEK293 cells [6]; time point 32) was -4.417. The hek293_flor_wauc_32 (HEK293 cells [6]; time point 32) was 0, the hek293_flor_emax_40 (HEK293 cells [6]; time point 40) was 0 and the hek293_flor_pod_40 (HEK293 cells [6]; time point 40) was -4.417. For the same compound, the hek293_flor_wauc_40 (HEK293 cells [6]; time point 40) was 0, the hepg2_glo_auc (HepG2 cells [7]) was 0.5829 and the hepg2_glo_bin (HepG2 cells [7]; kinetics bin) was “inconclusive”. The hepg2_glo_emax_0 (HepG2 cells [7]; time point 0) was -25.8612, the hepg2_glo_pod_0 (HepG2 cells [7]; time point 0) was -4.428 and the hepg2_glo_wauc_0 (HepG2 cells [7]; time point 0) was 0.7068. The hepg2_glo_emax_8 (HepG2 cells [7]; time point 8) was 0, the hepg2_glo_pod_8 (HepG2 cells [7]; time point 8) was -4.417 and the hepg2_glo_wauc_8 (HepG2 cells [7]; time point 8) was 0. It also gave a hepg2_glo_emax_16 (HepG2 cells [7]; time point 16) of 0, a hepg2_glo_pod_16 (HepG2 cells [7]; time point 16) of -4.417 and a hepg2_glo_wauc_16 (HepG2 cells [7]; time point 16) of 0. The hepg2_glo_emax_24 (HepG2 cells [7]; time point 24) was 0, the hepg2_glo_pod_24 (HepG2 cells [7]; time point 24) was -4.417 and the hepg2_glo_wauc_24 (HepG2 cells [7]; time point 24) was 0. The hepg2_glo_emax_32 (HepG2 cells [7]; time point 32) was 0, the hepg2_glo_pod_32 (HepG2 cells [7]; time point 32) was -4.417 and the hepg2_glo_wauc_32 (HepG2 cells [7]; time point 32) was 0. The hepg2_glo_emax_40 (HepG2 cells [7]; time point 40) was 0, the hepg2_glo_pod_40 (HepG2 cells [7]; time point 40) was -4.417 and the hepg2_glo_wauc_40 (HepG2 cells [7]; time point 40) was 0. For the same compound, the EC50 (HEK293 cells [8]; HEK293, read-out: hek293_flor_ec50_0) was > 38.3 µM, the EC50 (HEK293 cells [8]; HEK293, read-out: hek293_flor_ec50_8) was > 38.3 µM and the EC50 (HEK293 cells [8]; HEK293, read-out: hek293_flor_ec50_16) was > 38.3 µM. The EC50 (HEK293 cells [8]; HEK293, read-out: hek293_flor_ec50_24) was > 38.3 µM, the EC50 (HEK293 cells [8]; HEK293, read-out: hek293_flor_ec50_32) was > 38.3 µM and the EC50 (HEK293 cells [8]; HEK293, read-out: hek293_flor_ec50_40) was > 38.3 µM.
